# Results: US20190002555A1, “ANTIGEN-BINDING PROTEINS TO MARINOBUFAGENIN” (REGENERON PHARMACEUTICALS, INC., priority 2015, published 2019)
# Several values for one entry are separate records, joined by “and”; a condition that tells them apart may be missing. Identical values can stand only once. Like-named read-outs stand apart in the source and are kept apart here.
# Molecular target: T1, Na+/K+ ATPase (Homo sapiens, UniProt P05023)
# T1 construct: An in-vitro cell-based assay was developed to assess the regulation of Na+/K+ ATPase by MBG using HEK293 cells; host or cells: HEK293/hnAChR α3/β4 cells
# Assay: Membrane potential assay: MBG inhibition of membrane repolarization
# Format: cell-based
# From the text: An in-vitro cell-based assay was developed to assess the regulation of Na+/K+ ATPase by MBG using HEK293 cells. HEK293 has Na+/K+ ATPase activity and contains the α1 isoform (Kochskämper et al. 1997, Biochim. Biophys. Acta 1325: 197-208). […] HEK293 cells expressing human neuronal nicotinic acetylcholine receptors (nAChR) subunits α3 and β4 (Accession # M37981 and #NM_000750), HEK293/hnAChR α3/β4 (Millipore) were used. The nAchR heterodimer is a ligand-gated ion channel that mediates influx of Na+ upon ligand binding (Corringer et al. 2000, Annu. Rev. Pharmacol. Toxicol. 40: 431-458). […] MBG was added to inhibit the repolarization of the cell through its effects on Na^+/K^+ ATPase. Changes in the membrane potential of the cells were monitored using a fluorescent dye whose intensity increases when the cells are depolarized and decreases as the cells are repolarized.
# For the bioassay, cells were detached with Enzyme Free Cell Dissociation Buffer (Millipore) seeded into 96-well assay plates at 50,000 cells/well in Opti-MEM™ assay buffer supplemented with 0.1% FBS, penicillin/streptomycin and L-glutamine (known from this point forward as Opti-MEM™), and then incubated at 37° C. in 5% CO2 overnight. […] The plate was then placed into the FLIPR^Tetra® (Molecular Devices) and kinetic readings were collected at 25° C. […]
compound,measurement,setting,value
"C[C@]12CC[C@H](O)C[C@@]1(O)CC[C@@H]1[C@@H]2CC[C@]2(C)[C@@H](c3ccc(=O)oc3)CC3O[C@@]312 (stereo partly drawn) [MBG, 3β, 5β-dihydroxy-14,15-epoxybufadienolide]",IC50,IC50 [M] of MBG (@ 100 nM Epibatidine),6.6e-07 M and 4.5e-07 M
same,IC50,read-out: IC50 of MBG,7e-07 M and 4.46e-07 M and 6.62e-07 M
